Values of other authors in patent US20250161231A1, “LUTEIN FOR USE IN INHIBITING MAST CELL DEGRANULATION” (N.V. NUTRICIA, priority 2022, published 2025).

Test system: human mast cells
Conditions: literature, Int Arch Allergy Immunol 113, 335-336, 1997

For CC1=C(/C=C/C(C)=C/C=C/C(C)=C/C=C/C=C(C)/C=C/C=C(C)/C=C/C2=C(C)CCCC2(C)C)C(C)(C)CCC1 [beta-carotene], the “inhibition of histamine release from human mast cells” value is listed as “dose-dependent inhibition”.
